From US12195490B2, “STRAD-binding agents and uses thereof” (The Regents of the University of California, priority 2020, dated 2025) come the findings set out here.

One assay has as its system ACHN cell line. In words: drug screen of the SelleckChem kinase inhibitor library with and without 5 uM SU-329, Cell-Titer Glo after 5 days. The format is cell-based.
Conditions: not given
CHIR-98014 gave a log2fc of 3.928.

Staying with this assay, now noted: kinase inhibitor at 200 nM with and without 5 uM SU329; ACHN cell line; 5 days; Cell-Titer Glo.
Take `O=c1c(-c2ccc(O)cc2)coc2cc(O)cc(O)c12` [Genistein]: the log2fc is listed as 0.05262.
In turn, `CNC(=O)c1ccc(C)c(-n2c(C)cc(OCc3ccc(F)cc3F)c(Br)c2=O)c1` [PH-797804] showed a log2fc of −0.5678.
The same measure, in the same setting: with `Cn1ncc(Cl)c1-c1cc(C(=O)N[C@H](CN)Cc2ccc(F)c(F)c2)oc1Cl` [Uprosertib (GSK2141795)] the figure was −1.387; with `COc1cc(F)c(F)c(Nc2ccc(I)cc2F)c1NS(=O)(=O)C1(C[C@H](O)CO)CC1` [Refametinib (RDEA119, Bay 86-9766)], 0.4867.
Compound `COc1cc(Nc2ncc3c(n2)-c2ccc(Cl)cc2C(c2c(F)cccc2OC)=NC3)ccc1C(=O)O` [Alisertib (MLN8237)] returned a log2fc of 0.7052.
The same measure, in the same setting: with `Cn1cnc2c(F)c(Nc3ccc(Br)cc3Cl)c(C(=O)NOCCO)cc21` [Selumetinib (AZD6244), selumetinib, reference compound] the figure was 0.357; with `C[C@@H](NC(=O)c1ncnc(N)c1Cl)c1ncc(C(=O)Nc2cc(C(F)(F)F)c(Cl)cn2)s1` [MLN2480], 0.5916; with `Cc1ccc(C(=O)Nc2ccc(CN3CCN(C)CC3)c(C(F)(F)F)c2)cc1C#Cc1cnc2cccnn12` [Ponatinib (AP24534)], −0.4485.
The same measure, in the same setting: with `CC(=O)Nc1nc(C)c(-c2ccc(Cl)c(S(=O)(=O)NCCO)c2)s1` [PIK-93] the figure was 0.3162; with `O=C(Nc1c[nH]nc1-c1nc2ccc(CN3CCOCC3)cc2[nH]1)NC1CC1` [AT9283], 2.163; with `Cn1c(Nc2ccc(C(F)(F)F)cc2)nc2cc(Oc3ccnc(-c4ncc(C(F)(F)F)[nH]4)c3)ccc21` [RAF265 (CHIR-265)], 0.9001.
With `Cc1cn(-c2cc(NC(=O)c3ccc(C)c(Nc4nccc(-c5cccnc5)n4)c3)cc(C(F)(F)F)c2)cn1` [Nilotinib (AMN-107)], the log2fc was 0.331.
`Cc1cc(Nc2nc(N[C@@H](C)c3ncc(F)cn3)ncc2Cl)[nH]n1` [AZD1480]: the log2fc came to 0.4813.
On the same count and under the same terms, with `Cc1ccc(Nc2nccc(N(C)c3ccc4c(C)n(C)nc4c3)n2)cc1S(N)(=O)=O.Cl` [Pazopanib HCl (GW786034 HCl)] the figure was 0.1817.
With `COC(=O)Nc1ccc(-c2nc(N3CCOCC3)c3cnn(C4CCN(C(=O)OC)CC4)c3n2)cc1` [WYE-354], the log2fc is recorded as −1.143.
Same read-out and setting: with `CC(C)(C)c1ccc(S(=O)(=O)/C=C/C#N)cc1` [Bay 11-7085] the figure was 0.004153; with `Cn1cc(-c2ccc3ncc(Cc4ccc5ncccc5c4)n3n2)cn1` [NVP-BVU972], 0.5846.
Same read-out and setting: with `CC(C)CCN1c2nc(Nc3cc(F)c(O)c(F)c3)ncc2N(C)C(=O)C1C` (centres unmarked) [BI-D1870] the figure was 0.7499; with `CNC(=O)c1cc(Oc2ccc(NC(=O)Nc3ccc(Cl)c(C(F)(F)F)c3)cc2)ccn1` [Sorafenib, sorafenib, reference compound], 0.2462.
In turn, `CN(C)Cc1cccc(N/C(=C2\C(=O)Nc3cc(C(=O)N(C)C)ccc32)c2ccccc2)c1` [BIX 02189] registered a log2fc of −0.08248.
On the same count and under the same terms, with `COc1cc(Nc2ncc(F)c(Nc3ccc4c(n3)N(COP(=O)(O)O)C(=O)C(C)(C)O4)n2)cc(OC)c1OC` [Fostamatinib (R788)] the figure was 0.7242.
Same read-out and setting: with `N#Cc1c(Oc2ccc(F)c(NC(=O)Cc3cccc(C(F)(F)F)c3)c2)ccc2nc(NC(=O)C3CC3)sc12` [TAK-632] the figure was 0.4732; with `CCCCOc1c(C(=O)c2c(F)cc(C)cc2F)c[nH]c2nncc1-2` [BMS-265246], −0.1077.
`O=C(c1ccc(/C=C/c2n[nH]c3ccccc23)cc1)N1CCNCC1` [KW-2449] came in with a log2fc of −0.0564.
The same measure, in the same setting: with `CCCCCCCCCCCCc1ccc(S(=O)(=O)Nc2nncs2)cc1` [PHT-427] the figure was −0.02861.
Compound `CN1CCN(Cc2ccc(-c3cnc4[nH]cc(-c5ccc6[nH]ccc6c5)c4c3)cc2)CC1` [URMC-099] had a log2fc of 0.3515.
For `CNC(=O)c1cc(Oc2ccc(NC(=O)Nc3ccc(Cl)c(C(F)(F)F)c3)c(F)c2)ccn1` [Regorafenib (BAY 73-4506)], the log2fc worked out at 0.8333.
`C=CC(=O)Nc1cccc(Oc2nc(Nc3ccc(N4CCN(C)CC4)cc3OC)ncc2Cl)c1` [WZ4003] returned a log2fc of −0.1405.
On the same count and under the same terms, with `O=C(NCCCNc1nc(Nc2cccc(NC(=O)N3CCCC3)c2)ncc1I)c1cccs1` [BX-795] the figure was −0.3476; with `COc1cc2nccc(Oc3ccc(NC(=O)NC4CC4)c(Cl)c3)c2cc1C(N)=O` [Lenvatinib (E7080)], −0.314; with `C[C@@H]1CCN(C(=O)CC#N)C[C@@H]1N(C)c1ncnc2[nH]ccc12.O=C(O)CC(O)(CC(=O)O)C(=O)O` [Tofacitinib (CP-690550) Citrate], 0.3512.
Still for that read-out and setting: with `Cn1c(=O)c(F)c(Nc2ccc(I)cc2F)c2c(=O)n(C[C@@H](O)CO)cnc21` [TAK-733, reference compound] the figure was 0.08618.
Same read-out and setting: with `CC(C)(C)c1nc(-c2cccc(NS(=O)(=O)c3c(F)cccc3F)c2F)c(-c2ccnc(N)n2)s1` [Dabrafenib (GSK2118436), dabrafenib, reference compound] the figure was −0.314.
On to `CCN1CCN(Cc2ccc(C(=O)Nc3ccc(C)c(Oc4ccc5c(c4)CC(=O)N5)c3)cc2C(F)(F)F)CC1` [DDR1-IN-1], for which the log2fc is given as −0.4228.
Still for that read-out and setting: with `COc1ccc(-c2ccc3c(N4CCOC[C@@H]4C)nc(N4CCOC[C@@H]4C)nc3n2)cc1CO` [AZD8055] the figure was 0.1024; with `CO[C@H]1C[C@@H]2CC[C@@H](C)[C@@](O)(O2)C(=O)C(=O)N2CCCC[C@H]2C(=O)O[C@H]([C@H](C)C[C@@H]2CC[C@@H](OP(C)(C)=O)[C@H](OC)C2)CC(=O)[C@H](C)/C=C(\C)[C@@H](O)[C@@H](OC)C(=O)[C@H](C)C[C@H](C)/C=C/C=C/C=C/1C` [Ridaforolimus (Deforolimus, MK-8669)], −1.384.
Compound `CN1CCN(S(=O)(=O)c2ccc(-c3cnc(N)c(C(=O)Nc4cccnc4)n3)cc2)CC1` [AZD2858] registered a log2fc of 0.1991.
For `Cn1cc(C2=C(c3cn(C4CCN(Cc5ccccn5)CC4)c4ccccc34)C(=O)NC2=O)c2ccccc21` [Enzastaurin (LY317615)], the log2fc worked out at 0.5814.
The same measure, in the same setting: with `NC(=O)c1ncn([C@@H]2O[C@H](CO)[C@@H](O)[C@H]2O)c1N` [AICAR (Acadesine)] the figure was 0.7164.
Same read-out and setting: with `COc1cc(C(=O)NC2CCN(C)CC2)ccc1Nc1ncc2c(n1)N(C1CCCC1)CC(F)(F)C(=O)N2C` [Ro3280] the figure was 0.4269; with `CC(C)CC(=O)Nc1n[nH]c2c1CN(C(=O)C1CCN(C)CC1)C2(C)C` [PHA-793887], −0.1187.
Still for that read-out and setting: with `O=C1Nc2cc(Br)ccc2/C1=C1/Nc2ccccc2/C1=N\O` [BIO] the figure was −0.1795.

The target in another assay is T1, LKB1 (Homo sapiens, UniProt Q15831+Q7RTN6).
T1 sequence (Q15831 1-433): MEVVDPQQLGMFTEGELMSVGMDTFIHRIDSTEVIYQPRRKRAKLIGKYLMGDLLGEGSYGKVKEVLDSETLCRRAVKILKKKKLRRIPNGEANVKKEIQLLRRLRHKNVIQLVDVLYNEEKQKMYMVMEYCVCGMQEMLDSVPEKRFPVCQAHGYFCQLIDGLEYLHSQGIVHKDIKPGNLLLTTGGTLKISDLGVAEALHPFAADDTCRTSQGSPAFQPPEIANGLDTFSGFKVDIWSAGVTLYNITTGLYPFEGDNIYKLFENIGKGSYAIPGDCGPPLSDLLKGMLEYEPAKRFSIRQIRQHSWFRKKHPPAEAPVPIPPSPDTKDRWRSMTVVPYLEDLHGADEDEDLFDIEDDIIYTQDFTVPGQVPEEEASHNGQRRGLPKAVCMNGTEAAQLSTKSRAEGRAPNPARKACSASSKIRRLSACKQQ
T1 sequence (Q7RTN6 1-431): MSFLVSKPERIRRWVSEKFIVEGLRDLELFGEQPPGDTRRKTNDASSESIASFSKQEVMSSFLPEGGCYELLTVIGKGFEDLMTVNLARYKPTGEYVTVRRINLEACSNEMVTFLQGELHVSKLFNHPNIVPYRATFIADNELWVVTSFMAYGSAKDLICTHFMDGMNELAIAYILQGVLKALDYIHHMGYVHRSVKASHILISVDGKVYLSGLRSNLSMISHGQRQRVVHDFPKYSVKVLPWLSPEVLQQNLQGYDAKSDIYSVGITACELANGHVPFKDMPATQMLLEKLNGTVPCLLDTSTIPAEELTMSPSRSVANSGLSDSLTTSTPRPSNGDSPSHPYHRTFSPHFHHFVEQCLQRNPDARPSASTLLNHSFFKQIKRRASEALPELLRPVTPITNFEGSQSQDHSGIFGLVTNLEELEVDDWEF
T1 sequence (Q9Y376 1-341 partner): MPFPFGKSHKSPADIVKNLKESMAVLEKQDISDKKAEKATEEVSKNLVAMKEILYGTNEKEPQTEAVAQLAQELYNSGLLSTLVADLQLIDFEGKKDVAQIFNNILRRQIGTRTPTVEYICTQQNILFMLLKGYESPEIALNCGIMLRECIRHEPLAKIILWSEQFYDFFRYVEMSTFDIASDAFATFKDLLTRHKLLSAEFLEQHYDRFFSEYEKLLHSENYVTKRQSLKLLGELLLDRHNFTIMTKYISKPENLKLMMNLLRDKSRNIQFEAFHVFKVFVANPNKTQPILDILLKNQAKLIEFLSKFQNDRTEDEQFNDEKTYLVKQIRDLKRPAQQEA
In words: in vitro LKB1 functional activity. It is filed as biochemical. The settings on record: APA analogs.
As for `CC(=O)NS(=O)(=O)c1ccc(NC(=O)c2nc(-c3ccc(N)cc3)cnc2N)cc1` [SU20668-0344, N-(4-(N-acetylsulfamoyl)phenyl)-3-amino-6-(4-aminophenyl)pyrazine-2-carboxamide], the “LKB1 % Act. Increase” value was “C (C=199-1000%)”.
The same measure, in the same setting: with `CC(=O)NS(=O)(=O)c1ccc(NC(=O)c2nc(-c3ccncc3F)cnc2N)cc1` [SU20668-0374, N-(4-(N-acetylsulfamoyl)phenyl)-3-amino-6-(3-fluoropyridin-4-yl)pyrazine-2-carboxamide] the entry was “C (C=199-1000%)”; with `Cc1ccc(-c2cnc(N)c(C(=O)Nc3ccc(S(=O)(=O)NC(=O)C(C)C)cc3)n2)cc1` [SU20668-0327, 3-amino-N-(4-(N-isobutyrylsulfamoyl)phenyl)-6-p-tolylpyrazine-2-carboxamide], “D (D=<1000%)”.
On the same count and under the same terms, with `COP(=O)(CS(=O)(=O)c1ccc(NC(=O)c2nc(-c3ccc(C)cc3C)cnc2N)cc1)OC` [SU20668-0450, dimethyl (4-(3-amino-6-(2,4-dimethylphenyl)pyrazine-2-carboxamido)phenylsulfonyl)methylphosphonate] the entry was “D (D=<1000%)”.
